From ChEMBL document CHEMBL3244291, “Synthesis and antiinflammatory activity of 6-oxo-1-(beta-D-ribofuranosyl)nocotinic acid and related derivatives” (J Med Chem, 1978)
Activity calls are given as the source filed them. No cut-off for these calls is given here.

How the values were obtained:
Rattus norvegicus [1] = experiment: Toxicity in Wistar rat mycobacterial adjuvant-induced arthritis model assessed as increase in body weight at 30 mg/kg/day, po after 14 days (reference value: 19 g); assay type: organism-based; parameters: route oral; details: in vivo, 336 h
Rattus norvegicus [2] = experiment: Antiinflammatory activity in Wistar rat mycobacterial adjuvant-induced arthritis model assessed as inhibition of swelling at 30 mg/kg/day, po measured on day 3 relative to control; assay type: functional; details: 72 h
Rattus norvegicus [3] = experiment: Antiinflammatory activity in Wistar rat mycobacterial adjuvant-induced arthritis model assessed as suppression of secondary lesions at 30 mg/kg/day, po measured on day 14; assay type: functional, organism-based
Rattus norvegicus [4] = experiment: Antiinflammatory activity in Wistar rat mycobacterial adjuvant-induced arthritis model assessed as inhibition of swelling at 30 mg/kg/day, po measured on day 14 relative to control; assay type: functional; details: 336 h

O=C(O)c1ccc(=O)n([C@@H]2O[C@H](CO)[C@@H](O)[C@H]2O)c1
Activity (Rattus norvegicus [1]): 22 g
inhibition in vivo at 30 mg/kg/day (Rattus norvegicus [2]): 21%
Activity (Rattus norvegicus [3]): inactive
inhibition in vivo at 30 mg/kg/day (Rattus norvegicus [4]): 37%

COc1ccc2cc([C@H](C)C(=O)O)ccc2c1 [NAPROXEN]
inhibition in vivo at 30 mg/kg/day (Rattus norvegicus [4]): 65%
